The assay has as its system Leishmania donovani. As to the kind of experiment: Antileishmanial activity against promastigote stage of Leishmania donovani assessed as parasite growth inhibition at 10 ug/ml after 2 hr by MTT assay relative to control. In kind it is functional. As to conditions: read-out: GI. In general terms: Tetrazolium assays rely on reduction of a dye to a coloured formazan, in cell work by metabolically active cells.
As for `Nc1nc(-c2ccccc2)cc(-c2ccc(-n3cnc4ccccc43)cc2)n1`, the inhibition of growth at 10 µg/mL amounted to 41.9%.
To `Nc1nc(-c2ccccc2)cc(-c2ccc(-n3ccnc3)cc2)n1` belongs 32.8%.
For `COc1ccc(-c2cc(-c3ccc(-n4cnc5ccccc54)cc3)nc(N)n2)cc1`, the inhibition of growth at 10 µg/mL was found to be 51.2%.
For the compound `Nc1nc(-c2ccc(Br)cc2)cc(-c2ccc(-n3ccnc3)cc2)n1`, the inhibition of growth at 10 µg/mL is 24.3%.
With `COc1ccc(-c2cc(-c3ccc(-n4ccnc4)cc3)nc(N)n2)cc1`, the inhibition of growth at 10 µg/mL stood at 18.1%.
In the case of `Nc1nc(-c2ccc(Br)cc2)cc(-c2ccc(-n3cnc4ccccc43)cc2)n1`, the inhibition of growth at 10 µg/mL amounted to 32.5%.
Consider `Nc1nc(-c2ccc(Cl)cc2)cc(-c2ccc(-n3cnc4ccccc43)cc2)n1`, for which the inhibition of growth at 10 µg/mL came out at 32.7%.
In the case of `Nc1nc(-c2ccc(-n3cnc4ccccc43)cc2)cc(-c2ccc(Cl)cc2Cl)n1`, the inhibition of growth at 10 µg/mL is 56.4%.
To `Nc1nc(-c2ccc(Cl)cc2)cc(-c2ccc(-n3ccnc3)cc2)n1` belongs 46.1%.
Then `Nc1nc(-c2ccc(F)cc2)cc(-c2ccc(-n3cnc4ccccc43)cc2)n1`, with 29.6%.

These data come from ChEMBL document CHEMBL3045414, “Synthesis and evaluation of 2,4,6-trisubstituted pyrimidine derivatives as novel antileishmanial agents” (2013).
